Test results published in patent US20250268903A1, “RXFP1 AGONISTS” (BRISTOL-MYERS SQUIBB COMPANY, priority 2021, published 2025).

Molecular target: T1, human RXFP1 (Homo sapiens, UniProt Q9HBX9)
T1 construct: expressed in transfected cells
T1 sequence (Q9HBX9 1-757): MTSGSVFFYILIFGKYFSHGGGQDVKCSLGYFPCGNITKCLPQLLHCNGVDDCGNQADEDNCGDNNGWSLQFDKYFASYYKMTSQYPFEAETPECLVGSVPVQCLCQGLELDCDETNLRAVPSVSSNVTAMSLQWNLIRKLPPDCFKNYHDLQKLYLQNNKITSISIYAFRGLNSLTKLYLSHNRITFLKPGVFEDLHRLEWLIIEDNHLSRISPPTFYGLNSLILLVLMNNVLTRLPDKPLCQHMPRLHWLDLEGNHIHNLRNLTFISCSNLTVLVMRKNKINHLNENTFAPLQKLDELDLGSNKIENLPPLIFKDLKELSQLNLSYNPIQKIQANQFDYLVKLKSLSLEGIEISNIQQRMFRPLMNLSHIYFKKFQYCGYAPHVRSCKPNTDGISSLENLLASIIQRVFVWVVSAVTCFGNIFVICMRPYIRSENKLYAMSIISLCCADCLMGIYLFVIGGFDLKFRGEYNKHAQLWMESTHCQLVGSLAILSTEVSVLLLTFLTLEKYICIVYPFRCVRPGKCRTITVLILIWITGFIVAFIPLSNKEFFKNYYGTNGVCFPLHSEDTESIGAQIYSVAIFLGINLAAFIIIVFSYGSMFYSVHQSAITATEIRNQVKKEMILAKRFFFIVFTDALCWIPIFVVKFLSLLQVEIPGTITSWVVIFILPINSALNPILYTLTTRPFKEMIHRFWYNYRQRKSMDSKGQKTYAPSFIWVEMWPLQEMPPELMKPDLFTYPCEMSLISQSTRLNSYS
Test: hRXFP1 HEK293 cAMP assay (HTRF)
Format: cell-based
Conditions: HEK293 cells stably expressing human RXFP1, 30 min at room temperature
How it was run: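 Intracellular cAMP was read by HTRF, with potency fitted to a 4-parameter logistic curve. Compound exposure (0.010 nM–50 μM final, 2% DMSO) lasted 30 min at room temperature. Cells were hRXFP1-HEK293 at 1500 per well in IBMX-containing (0.5 mM) HEPES-buffered HBSS.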

An EC50 of 3000 nM was found for `CCCc1ccc(OC)c(C(=O)N[C@@H]2C3CCC(/C3=C/C(F)(F)F)[C@@H]2C(=O)Nc2ccc(F)c(C(F)(F)F)c2)c1` (stereo partly drawn) [Example 85, (2S,3R,7Z)-N-[4-fluoro-3-(trifluoromethyl)phe-nyl]-3-(2-methoxy-5-propylbenzamido)-7-(2,2,2-trifluoroethylidene)bi-cyclo[2.2.1]heptane-2-carboxamide] in this work.
An EC50 of 603 nM was found for `COc1ccc(CCCC(F)(F)F)cc1C(=O)NC1C2CCC(/C2=C/C(F)(F)F)[C@@H]1C(=O)Nc1ccc(F)c(C(F)(F)F)c1` (stereo partly drawn) [Example 185, (7Z)-N-[4-fluoro-3-(trifluoromethyl)phe-nyl]-3-[2-methoxy-5-(4,4,4-trifluorobutyl)benza-mido]-7-(2,2,2-trifluoroethylidene)bi-cyclo[2.2.1]heptane-2-carboxamide] in this work.
An EC50 of 59 nM was found for `COc1ccc(CCCC(F)(F)F)cc1C(=O)NC1C2CCC(/C2=C/C2CCC2)[C@@H]1C(=O)Nc1ccc(F)c(C(F)(F)F)c1` (stereo partly drawn) [Example 195, (7Z)-7-(cyclobutylmethylidene)-N-[4-fluoro-3-(trifluoromethyl)phe-nyl]-3-[2-methoxy-5-(4,4,4-trifluorobutyl)benza-mido]bicyclo[2.2.1] heptane-2-carboxamide] in this work.
An EC50 of 112 nM was found for `COC(=O)C1CC(c2ccc(OC)c(C(=O)N[C@H]3[C@@H](C(=O)Nc4ccc(F)c(C(F)(F)F)c4)[C@H]4CC[C@@H]3/C4=C\C3CC3)c2)C1` (single isomer, unassigned) [Example 332] in this work.
An EC50 of 73.4 nM was found for `COc1ccc(C(=O)N2CCN(CC(F)F)CC2)cc1C(=O)N[C@H]1[C@@H](C(=O)Nc2ccc(F)c(C(F)(F)F)c2)[C@H]2CC[C@@H]1/C2=C\C1CC1` [Example 255, (1R,2S,3R,4R,7Z)-7-(cyclopropyl-methylidene)-3-{5-[4-(2,2-difluoroethyl)piperazine-1-carbonyl]-2-methoxybenzamido}-N-[4-fluoro-3-heptane-2-(trifluoromethyl)phenyl]bicyclo [2.2.1] carboxamide] in this work.
An EC50 of 125 nM was found for `COc1ccc(COC2CC2)cc1C(=O)N[C@@H]1C2CCC(/C2=C/C2CC2)[C@@H]1C(=O)Nc1ccc(F)c(C(F)(F)F)c1` (stereo partly drawn) [Example 19, (2S,3R,7Z)-3-[5-(cyclopropoxymethyl)-2-methoxybenzamido]-7-(cyclopropylmethyli-dene)-N-[4-fluoro-3-(trifluoromethyl)phe-nyl]bicyclo[2.2.1]hept-ane-2-carboxamide] in this work.
An EC50 of 2600 nM was found for `COc1ccc(C23CCC(C(C)(C)O)(CC2)CC3)cc1C(=O)N[C@H]1[C@@H](C(=O)Nc2ccc(F)c(C(F)(F)F)c2)[C@H]2CC[C@@H]1/C2=C\C1CC1` (single isomer, unassigned) [Example 276] in this work.
An EC50 of 725 nM was found for `COc1ccc(CCCCCOC(=O)NC2CCC2)cc1C(=O)N[C@@H]1C2CCC(/C2=C/C(F)(F)F)[C@@H]1C(=O)Nc1ccc(F)c(C(F)(F)F)c1` (stereo partly drawn) [Example 103, 5-(3-{[(2R,3S,7Z)-3-{[4-fluoro-3-(trifluoromethyl)phe-nyl]carbamoyl}-7-(2,2,2-trifluoroethylidene)bi-cyclo[2.2.1]heptan-2-yl]carbamoyl}-4-methoxyphenyl)pent-yl N-cyclobutylcarbamate] in this work.
An EC50 of 833 nM was found for `COc1ccc(C2CCCC(NC(=O)C3CCOCC3)C2)cc1C(=O)N[C@@H]1C2CCC(/C2=C/C(F)(F)F)[C@@H]1C(=O)Nc1ccc(F)c(C(F)(F)F)c1` (single isomer, unassigned) [Example 48] in this work.
An EC50 of 234 nM was found for `COc1ccc([C@H]2C[C@@H](O)C2)cc1C(=O)NC1C2CCC(/C2=C/C(F)(F)F)[C@@H]1C(=O)Nc1ccc(F)c(C(F)(F)F)c1` (stereo partly drawn) [Example 146, (2S,7Z)-N-[4-fluoro-3-(trifluoromethyl)phe-nyl]-3-{2-methoxy-5-[(1s,3s)-3-hydroxycyclobutyl]benz-amido}-7-(2,2,2-trifluoroethylidene)bi-cyclo[2.2.1]heptane-2-carboxamide] in this work.
An EC50 of 94 nM was found for `COc1ccc(COCC2COC2)cc1C(=O)N[C@@H]1C2CCC(/C2=C/C2CC2)[C@@H]1C(=O)Nc1ccc(F)c(C(F)(F)F)c1` (stereo partly drawn) [Example 16, (2S,3R,7Z)-7-(cyclopropylmethyli-dene)-N-[4-fluoro-3-(trifluoromethyl)phe-nyl]-3-(2-methoxy-5-{[(oxetan-3-yl)methoxy]methyl}benzamido)bi-cyclo[2.2.1]hept-ane-2-carboxamide] in this work.
An EC50 of 341 nM was found for `COc1ccc(S(=O)(=O)N2CCN[C@@H](CO)C2)cc1C(=O)NC1C2CCC(/C2=C/C(F)(F)F)[C@@H]1C(=O)Nc1ccc(F)c(C(F)(F)F)c1` (stereo partly drawn) [Example 204, (2S,3R,7Z)-N-[4-fluoro-3-(trifluoromethyl)phe-nyl]-3-(5-{[(3R)-3-(hydroxymethyl)piper-azin-1-yl]sulfonyl}-2-methoxybenzamido)-7-(2,2,2-trifluoroethylidene)bi-cyclo[2.2.1]heptane-2-carboxamide] in this work.
An EC50 of 1920 nM was found for `COc1ccc(S(=O)(=O)NC2CCOC2)cc1C(=O)NC1C2CCC(/C2=C/C(F)(F)F)[C@@H]1C(=O)Nc1ccc(F)c(C(F)(F)F)c1` (stereo partly drawn) [Example 198, (2S,3R,7Z)-N-[4-fluoro-3-(trifluoromethyl)phe-nyl]-3-{2-methoxy-5-[(oxolan-3-yl)sulfamoyl]benza-mido}-7-(2,2,2-trifluoroethylidene)bi-cyclo[2.2.1]heptane-2-carboxamide] in this work.
An EC50 of 202 nM was found for `CCOC(=O)C1CCC(c2ccc(OC)c(C(=O)NC3C4CCC(/C4=C/C(F)(F)F)[C@@H]3C(=O)Nc3ccc(F)c(C(F)(F)F)c3)c2)CC1` (stereo partly drawn) [Example 143, ethyl 4-(3-{[(2R,3S,7Z)-3-{[4-fluoro-3-(trifluoromethyl)phe-nyl]carbamoyl}-7-(2,2,2-trifluoroethylidene)bi-cyclo[2.2.1]heptan-2-yl]carbamoyl}-4-methoxyphenyl)cyclo-hexane-1-carboxylate] in this work.
An EC50 of 59 nM was found for `COc1cc(F)c(O[C@H]2CC[C@](C)(C(=O)O)CC2)cc1C(=O)N[C@H]1[C@@H](C(=O)NCC2(C)CCC2)[C@H]2CC[C@@H]1/C2=C\C1CC1` [Example 377, (1R,4r)-4-(5-(((1R,2R,3S,4R,Z)-7-(cyclopropyl-methylene)-3-(((1-methylcyclobutyl)methyl)carbamoyl)bicyclo[2.2.1]heptan-2-yl)carbamoyl)-2-fluoro-4-methoxyphenoxy)-1-methylcyclohexane-1-carboxylic acid] in this work.
An EC50 of 76 nM was found for `COc1ccc(CC2CCOCC2)cc1C(=O)NC1C2CCC(/C2=C/C2CCC2)[C@@H]1C(=O)Nc1ccc(F)c(C(F)(F)F)c1` (stereo partly drawn) [Example 194, (7Z)-7-(cyclobutylmethyli-dene)-N-[4-fluoro-3-(trifluoromethyl)phe-nyl]-3-{2-methoxy-5-[(oxan-4-yl)methyl]benzamido} bicyclo[2.2.1]hept-ane-2-carboxamide] in this work.
An EC50 of 67 nM was found for `COc1ccc(CCCO)cc1C(=O)N[C@@H]1C2CCC(/C2=C/C(F)(F)F)[C@@H]1C(=O)Nc1ccc(F)c(C(F)(F)F)c1` (stereo partly drawn) [Example 84, (2S,3R,7Z)-N-[4-fluoro-3-(trifluoromethyl)phe-nyl]-3-[5-(3-hydroxypropyl)-2-methoxybenzamido]-7-(2,2,2-trifluoroethylidene)bi-cyclo[2.2.1]heptane-2-carboxamide] in this work.
An EC50 of 276 nM was found for `COc1ccc(C2CCC(O)CC2)cc1C(=O)NC1C2CCC(/C2=C/C(F)(F)F)[C@@H]1C(=O)Nc1ccc(F)c(C(F)(F)F)c1` (single isomer, unassigned) [Example 52] in this work.
